Here are results for eight compounds from USRE47689E1, “Compounds for treating spinal muscular atrophy” (PTC Therapeutics, Inc., priority 2011, dated 2019).

One series concerns Smn protein. Put plainly: Smn protein assay in cultured cells (SMN HTRF). It is filed as cell-based, human. As to conditions: 48 hours; for maximum fold (Fold) increase of Smn protein: SMA patient fibroblast cells, 7-point concentration data, fold increase relative to vehicle control (SMN HTRF); for EC1.5x (concentration giving 1.5-fold Smn protein increase): SMA Type 1 patient fibroblast cells (GM03813), 7-point concentration curve, SMN HTRF, concentration producing 1.5 times Smn protein vs DMSO vehicle control, read-out: EC1.5x for Smn protein expression. An outline of the steps: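 Smn in SMA fibroblast lysates, measured by anti-SMN HTRF after 48 h compound exposure; EC1.5x from fold change over vehicle.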

The test system of series [1] is SMN2 minigene (full length SMN2 minigene mRNA containing SMN2 exon 7). Put plainly: SMN2 minigene mRNA splicing RT-qPCR assay in cultured cells. The format is cell-based, human. As to conditions: Homo sapiens, HEK293-H; HEK293H cells stably transfected with SMN2-A minigene; 24 hours; 7-point concentration curve; 1.5-fold relative to vehicle-treated cells; read-out: EC1.5x for production of full length SMN2 mRNA. In a few lines: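 Lysates → one-step RT-qPCR, minigene-specific primers (0.4 μM final) + GAPDH multiplex, 40 cycles. FL/GAPDH vs DMSO; EC1.5x, star-binned.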

Bounds are passed on as bounds.

`Cc1ccn2cc(-c3cc4ccc(N5CCN6CCC[C@H]6C5)cc4oc3=O)nc2c1` [Compound 534, 7-[(8aS)-hexahydropyrrolo[1,2-a]pyrazin-2(1H)-yl]-3-(7-methylimidazo[1,2-a]pyridin-2-yl)-2H-chromen-2-one] displayed a melting point of 258 to 265 °C. Further, the “maximum fold (Fold) increase of Smn protein” value (“maximum fold (Fold) increase” below) in the series with Smn protein was “*** (fold increase between >1.35 and ≤1.5)”. Further, in series [1], the EC (1.5-fold) is 1 to 3 µM.
On to `Cc1cn2cc(-c3cc4ccc(C5CCN(CCO)CC5)cc4oc3=O)nc2c(C)n1` [Compound 750, 3-(6,8-dimethylimidazo[1,2-a]pyrazin-2-yl)-7-[1-(2-hydroxyethyl)piperidin-4-yl]-2H-chromen-2-one], for which the melting point was 207 to 212 °C. Moreover, in the series on Smn protein, the EC1.5x (concentration giving 1.5-fold Smn protein increase) was less than 300 nM and the “maximum fold (Fold) increase” value is on record as “***** (fold increase >1.65)”. Also, in series [1], the EC (1.5-fold) is less than 0.1 µM.
Compound `Cc1cn2cc(-c3cc4ccc(N5C[C@@H]6CCN(C)[C@@H]6C5)cc4oc3=O)cc2c(C)n1` [Compound 729, 3-(1,3-dimethylpyrrolo[1,2-a]pyrazin-7-yl)-7-[(3aS,6aS)-1-methylhexahydropyrrolo[3,4-b]pyrrol-5(1H)-yl]-2H-chromen-2-one] returned a melting point of 173 to 175 °C. Also, in the series with Smn protein, the EC1.5x (concentration giving 1.5-fold Smn protein increase) lay within 1000 to 3000 nM; the “maximum fold (Fold) increase” value was “*** (fold increase between >1.35 and ≤1.5)”. The EC (1.5-fold) in series [1] is less than 0.1 µM.
`CCc1cc(C)cn2cc(-c3cc4ccc(N5C[C@@H](C)N[C@@H](C)C5)cc4oc3=O)nc12` [Compound 341, 7-[(3R,5S)-3,5-dimethylpiperazin-1-yl]-3-(8-ethyl-6-methylimidazo[1,2-a]pyridin-2-yl)-2H-chromen-2-one] came in with a melting point of 203 to 208 °C. Also, the “maximum fold (Fold) increase” value with Smn protein is “* (maximum fold increase of ≤1.2)”. Moreover, the EC (1.5-fold) in series [1] fell in the range of 0.3 to 1 µM.
Consider `Cc1cn2cc(-c3cc4ccc(N5CCN6CCC[C@@H]6C5)cc4oc3=O)nc2cn1` [Compound 625, 7-[(8aR)-hexahydropyrrolo[1,2-a]pyrazin-2(1H)-yl]-3-(6-methylimidazo[1,2-a]pyrazin-2-yl)-2H-chromen-2-one], for which the melting point lay within 240 to 245 °C. Moreover, in the series on Smn protein, the EC1.5x (concentration giving 1.5-fold Smn protein increase) was 300 to 1000 nM; the “maximum fold (Fold) increase” value was “*** (fold increase between >1.35 and ≤1.5)”. The EC (1.5-fold) in series [1] was less than 0.1 µM.
In turn, `Cc1cccn2cc(-c3cc4c(F)cc(N5CCN(C)CC5)cc4oc3=O)nc12` [Compound 423, 5-fluoro-3-(8-methylimidazo[1,2-a]pyridin-2-yl)-7-(4-methylpiperazin-1-yl)-2H-chromen-2-one] had a melting point of 232 to 237 °C. For the same compound, the “maximum fold (Fold) increase” value in the series with Smn protein was “* (maximum fold increase of ≤1.2)”. Further, the EC (1.5-fold) in series [1] was 1 to 3 µM.
On to `Cc1cc(F)c2nc(-c3cc4ccc(N5CCN(C)CC5)cc4oc3=O)cn2c1` [Compound 353, 3-(8-fluoro-6-methylimidazo[1,2-a]pyridin-2-yl)-7-(4-methylpiperazin-1-yl)-2H-chromen-2-one], for which the melting point was in the range of 252 to 262 °C. Also, in the series on Smn protein, the EC1.5x (concentration giving 1.5-fold Smn protein increase) is 1000 to 3000 nM; the “maximum fold (Fold) increase” value is “**** (fold increase between >1.5 and ≤1.65)”. In series [1], the EC (1.5-fold) is less than 0.1 µM.
Compound `Cc1cn2cc(-c3cc4ccc(N5CCC(NC(C)CO)CC5)cc4oc3=O)nc2c(C)n1` (centres unmarked) [Compound 925, 3-(6,8-dimethylimidazo[1,2-a]pyrazin-2-yl)-7-{4-[(1-hydroxypropan-2-yl)amino]piperidin-1-yl}-2H-chromen-2-one] showed a melting point of 185 to 189 °C. Besides, in the series on Smn protein, the EC1.5x (concentration giving 1.5-fold Smn protein increase) was in the range of 1000 to 3000 nM; the “maximum fold (Fold) increase” value was “*** (fold increase between >1.35 and ≤1.5)”. The EC (1.5-fold) in series [1] was less than 0.1 µM.
